Data from patent publication US6361788B1, “Synergistic biocide composition” (Thor Chemie GmbH, priority 1997, dated 2002).

Tests used:
Type in all cases: cell-based
Settings in all cases: for growth of the microorganism: MIT ppm = row head c0
Pseudomonas putida = experiment: MIC and synergy of MIT and BIT in Müller-Hinton broth, 48 h; as to growth of the microorganism: key: growth of the microorganism took place (symbol '+'); or not (symbol '−')
Method: (§1) The synergy index is calculated according to the method of F. C. Kull et al., Applied Microbiology, Vol. 9 (1961), p. 538. Here the synergy index is calculated using the following formula:
(§2) Synergy index SI=Qa/QA+Qb/QB.
The synergy of the two active substances MIT and BIT against the microorganism Pseudomonas putida is shown as in Example 1.
The test batches again contained a Müller-Hinton broth as a nutrient medium. The cell density was 10^6 cells/mL. The incubation time was 48 h at 25° C. Each sample was incubated on an incubation shaker at 120 rpm.

Pseudomonas stutzeri = experiment: MIC and synergy of MIT and BIT in Müller-Hinton broth, 72 h; as to growth of the microorganism: key: growth of the microorganism took place (symbol '+'); or not (symbol '−')
Method: as §1, §2
The synergy of MIT and BIT against the microorganism Pseudomonas stutzeri is shown as in Example 1.
The test batches again contained a Müller-Hinton broth as a nutrient medium. The cell density was 10^6 cells/mL. The incubation time was 72 h at 25° C. Each sample was incubated on an incubation shaker at 120 rpm.

Escherichia coli = experiment: as above; as to growth of the microorganism: key: growth of the microorganism took place (symbol '+'); or not (symbol '−')
Method: For this purpose, aqueous mixtures were produced with various concentrations of 2-methylisothiazolin-3-one (MIT) and 1,2-benzisothiazolin-3-one (BIT) and the activity of these mixtures on Escherichia coli (International Mycological Institute, Strain No. IMI 362054) was tested.
In addition to the biocide component and water, the aqueous mixtures contained a nutrient medium, namely a Müller-Hinton broth (commercial product “Merck No. 10393”). The cell density of Escherichia coli was 10^6 cells/mL. The incubation time was 72 h at 25° C. Each sample was incubated on an incubation shaker at 120 rpm.
as §1, §2
When the synergy index has the value 1, this means that there is an addition of the activity of the two biocides. When the synergy index has a value of less than 1, this means that a synergy of the two biocides exists.

[1] = BIT share of the BIT/MIT mixture at MIC, 72 h

O=c1[nH]sc2ccccc12 [BIT, 1,2-benzisothiazolin-3-one]
MIC at Total concentration BIT + MIT Qa + Qb (Pseudomonas putida; 48 h): 60 ppm
Qa/QA (Pseudomonas putida; 48 h): 1.00
Synergy index Qa/QA + Qb/QB (Pseudomonas putida; 48 h): 1.00
growth of the microorganism (Pseudomonas putida; BIT 0.5 ppm, 48 h): +
growth of the microorganism (Pseudomonas putida; BIT 1 ppm, 48 h): +
growth of the microorganism (Pseudomonas putida; BIT 2.5 ppm, 48 h): +
growth of the microorganism (Pseudomonas putida; BIT 5 ppm, 48 h): +
growth of the microorganism (Pseudomonas putida; BIT 7.5 ppm, 48 h): +
growth of the microorganism (Pseudomonas putida; BIT 10 ppm, 48 h): +
growth of the microorganism (Pseudomonas putida; BIT 15 ppm, 48 h): +
growth of the microorganism (Pseudomonas putida; BIT 20 ppm, 48 h): +
growth of the microorganism (Pseudomonas putida; BIT 25 ppm, 48 h): +
growth of the microorganism (Pseudomonas putida; BIT 30 ppm, 48 h): +
growth of the microorganism (Pseudomonas putida; BIT 40 ppm, 48 h): +
growth of the microorganism (Pseudomonas putida; BIT 50 ppm, 48 h): +
growth of the microorganism (Pseudomonas putida; BIT 60 ppm, 48 h): −
growth of the microorganism (Pseudomonas putida; BIT 70 ppm, 48 h): −
growth of the microorganism (Pseudomonas putida; BIT 80 ppm, 48 h): −
MIC at BIT concentration Qa (Pseudomonas putida; BIT share of the BIT/MIT mixture at MIC, 48 h): 60 ppm
MIC value (Pseudomonas putida; used alone, 48 h at 25° C.): 60 ppm
MIC at Total concentration BIT + MIT Qa + Qb (Pseudomonas stutzeri; 72 h): 20 ppm
Qa/QA (Pseudomonas stutzeri; 72 h): 1.00
Synergy index Qa/QA + Qb/QB (Pseudomonas stutzeri; 72 h): 1.00
growth of the microorganism (Pseudomonas stutzeri; BIT 0.5 ppm, 72 h): +
growth of the microorganism (Pseudomonas stutzeri; BIT 1 ppm, 72 h): +
growth of the microorganism (Pseudomonas stutzeri; BIT 2.5 ppm, 72 h): +
growth of the microorganism (Pseudomonas stutzeri; BIT 5 ppm, 72 h): +
growth of the microorganism (Pseudomonas stutzeri; BIT 7.5 ppm, 72 h): +
growth of the microorganism (Pseudomonas stutzeri; BIT 10 ppm, 72 h): +
growth of the microorganism (Pseudomonas stutzeri; BIT 15 ppm, 72 h): +
growth of the microorganism (Pseudomonas stutzeri; BIT 20 ppm, 72 h): −
growth of the microorganism (Pseudomonas stutzeri; BIT 25 ppm, 72 h): −
growth of the microorganism (Pseudomonas stutzeri; BIT 30 ppm, 72 h): −
MIC at BIT concentration Qa (Pseudomonas stutzeri; [1]): 20 ppm
MIC value (Pseudomonas stutzeri; used alone, 72 h at 25° C.): 20 ppm
MIC at Total concentration BIT + MIT Qa + Qb (Escherichia coli; 72 h): 25 ppm
Qa/QA (Escherichia coli; 72 h): 1.00
Synergy index Qa/QA + Qb/QB (Escherichia coli; 72 h, method of Kull): 1.00
growth of the microorganism (Escherichia coli; BIT 1 ppm, 72 h): +
growth of the microorganism (Escherichia coli; BIT 2.5 ppm, 72 h): +
growth of the microorganism (Escherichia coli; BIT 5 ppm, 72 h): +
growth of the microorganism (Escherichia coli; BIT 7.5 ppm, 72 h): +
growth of the microorganism (Escherichia coli; BIT 10 ppm, 72 h): +
growth of the microorganism (Escherichia coli; BIT 12.5 ppm, 72 h): +
growth of the microorganism (Escherichia coli; BIT 15 ppm, 72 h): +
growth of the microorganism (Escherichia coli; BIT 17.5 ppm, 72 h): +
growth of the microorganism (Escherichia coli; BIT 20 ppm, 72 h): +
growth of the microorganism (Escherichia coli; BIT 25 ppm, 72 h): −
growth of the microorganism (Escherichia coli; BIT 30 ppm, 72 h): −
growth of the microorganism (Escherichia coli; BIT 35 ppm, 72 h): −
MIC at BIT concentration Qa (Escherichia coli; [1]): 25 ppm
MIC value (Escherichia coli; used alone, 72 h at 25° C.): 25 ppm
